Test results taken from patent US12139768B2, “Polymerase chain reaction primers and probes for Mycobacterium tuberculosis” (Rutgers, The State University of New Jersey, priority 2014, dated 2024).
“Also recorded” adds a separate entry of the source.

Columns and labels:
Assay type in all cases: cell-based, Mycobacterium tuberculosis
M.tb isolates [1] = tested on: M.tb isolates
M.tb isolates [2] = tested on: M.tb isolates; remark: listed apart in the source
M.tb isolates [3] = tested on: M.tb isolates; remark: listed apart in the source

Row | Compound | Level of resistance (M.tb isolates [1]) | Susceptibility in LJ media (M.tb isolates [2]) | Total number of isolates Resistant (LJ) (M.tb isolates [2]) | Total number of isolates Resistant (MGIT) (M.tb isolates [3])
1 | NCC[C@H](O)C(=O)N[C@@H]1C[C@H](N)[C@@H](O[C@H]2O[C@H](CN)[C@@H](O)[C@H](O)[C@H]2O)[C@H](O)[C@H]1O[C@H]1O[C@H](CO)[C@@H](O)[C@H](N)[C@H]1O [AMK, Amikacin] | high level resistance; also recorded: no resistance to AMK | susceptible | 90 | 
2 | NC[C@H]1O[C@H](O[C@H]2[C@H](O)[C@@H](O[C@H]3O[C@H](CO)[C@@H](O)[C@H](N)[C@H]3O)[C@H](N)C[C@@H]2N)[C@H](O)[C@@H](O)[C@@H]1O [KAN, Kanamycin] |  |  | 106 | 113
